Here are results for one molecule from patent publication US20180344639A1, “HYPOXIA-TARGETED POLYMERIC MICELLES FOR CANCER THERAPY AND IMAGING” (priority 2012, published 2018).

The nature of data set [1]: Release of drug from the polymeric micelle during dialysis, by change in absorbance. The settings on record: PMC from Example I; 24 hours dialysis; tris buffer (pH 7.4) given for Drug A only. In kind it is physicochemical. The method, then: (§1) The polymer is dissolved in deionized water or an aqueous buffer at a concentration of 0.010 g/mL. Drugs A is dissolved in DMSO at a concentration of 5 μg/μl. Drug A is added dropwise to the polymer solution with constant stirring at room temperature. The drugs are added over the course of 60 minutes resulting in a 2-5 fold molar excess over polymer. The solution is centrifuged to remove any precipitates and transferred to dialysis tubing with 10,000 MWCO. The solution is dialyzed against an aqueous buffer (50× volume) for 30 minutes.
(§2) The absorbance of the polymer-drug solution and dialysis buffer are recorded and compared to respective pre-dialysis samples by a UV/Vis spectrophotometer (polymer absorbance=280 nm; Drug A absorbance=450 nm). The encapsulation efficiency is calculated from the change in absorbance of the drug after this initial dialysis. The polymer-drug solution is dialyzed further with fresh buffer (50× volume) with multiple readings over the course of 72 hours with 4 buffer changes. The rate at which the drug is released from the polymeric micelle is calculated by the change in absorbance of the drug over time from the polymer-drug solution and dialysis buffer.
(§3) Encapsulation of Drug B is carried out by the same dialysis procedure as described in Example III for Drug A. Drug B is dissolved in DMSO to a stock solution of 2.5 mg/ml. […]

A short description of data set [2]: Encapsulation efficiency of drug in PMC of Example I by dialysis and UV/Vis absorbance. It is filed as physicochemical. The settings on record: PMC from Example I; dialysis 10,000 MWCO; tris buffer (pH 7.4) given for Drug A only. The method, then:
as §1, §2, §3

`CCCNC(=O)c1c(C)[nH]c(/C=C2\C(=O)Nc3ccc(F)cc32)c1C` [Drug A]: the drug released in data set [1] was 50%. Also, the Encapsulation efficiency result in data set [2] is reported as “greater than 80%”.
